The results in this text go back to US10792328B2, “Nanocomplexes for delivery of saporin” (Trustees of Tufts College, priority 2013, dated 2020).

In one assay the test system is MDA-MB-231 cancer cells. Briefly: In vitro protein transfection (saporin delivery), cell viability by Alamar Blue assay. The format is cell-based. The conditions noted are these: MDA-MB-231 cells, under all four studied conditions. The method, then:
Compositions 1-32 were tested for delivery of saporin into cells MDA-MB-231.
The two cells lines were purchased from ATCC (Manassas, Va.) and cultured in Dulbecco's Modified Eagle Medium (“DMEM”) supplemented with 10% Fetal Bovine Serum (“FBS”) and 1% penicillin/streptomycin at 37° C. in the presence of 5% CO2. For the protein transfection assay described below, cells were seeded in 96-well plates at a density of 10,000 cells per well a day prior to transfection.
To evaluate saporin delivery efficiency, lipid-like compound/saporin nanocomplexes prepared in Examples 19-54 were added to MDA-MB-231 cancer cells and incubated at 37° C. for 24 hours. The saporin concentration was 0.1 μg/250 μL in PBS. The same volume of PBS without any lipid-like compound or saporin was used as a control. The cell viability was determined by the Alamar Blue assay after 24 hours of incubation. All transfection studies were performed in quadruplicate.

Another assay deals with 4T1-12B breast tumors. Briefly: In vivo cancer treatment, inhibition of tumor growth. Conditions: BALB/c mice bearing 4T1-12B breast tumors, tail-vein injection every three days, 5.5 mg/kg lipid-like compound and 330 μg/kg saporin. The method, then:
Composition 33 (i.e., 1-O16B/saporin) and Composition 34 (i.e., 1-O18B/saporin) were tested for in vivo inhibiting tumor growth following the procedure described below. More specifically, BALB/c mice bearing 4T1-12B breast tumors were developed from a 4T1-12B cell suspension in DMEM supplemented with 10% FBS at a concentration of 10^7 cells/ml. An aliquot (100 μl) of the cell suspension was injected into the mammary fat pad of 4-6 week-old female BALB/c mice. The mice were sorted into four groups randomly (n=7 for treatment group, n=5 for control groups) seven days after the injection. The mice were injected through tail-vein every three days. For the treatment group, each mouse was injected with 5.5 mg/kg of 1-O16B or 1-O18B and 330 μg/kg of saporin. Tumor volumes were measured every three days.
PBS without 1-O16B, 1-O18B, and saporin was also injected as a control. Comparative studies were also conducted using saporin in PBS without 1-O16B and 1-O18B.

Turning to `CCCCCCCCCCCCSSCCOC(=O)CCN(C)CCCN(C)CCC(=O)OCCSSCCCCCCCCCCCC` [Composition 80-O16B], the saporin delivery efficiency entry in the assay with MDA-MB-231 cancer cells is given as “high saporin delivery efficiency”.

Turning to `CCCCCCCCCCCCCCCCOC(=O)CCN(C)CCCN(C)CCC(=O)OCCCCCCCCCCCCCCCC` [Composition 80-O16], the saporin delivery efficiency result with MDA-MB-231 cancer cells is “high saporin delivery efficiency”.

For `CCCCCCCCCCCCCCCCCCOC(=O)CCN(C)CCCN(C)CCC(=O)OCCCCCCCCCCCCCCCCCC` [Composition 80-O18], the saporin delivery efficiency entry in the assay with MDA-MB-231 cancer cells is listed as “high saporin delivery efficiency”.

For `CCCCCCCCCCCCCCSSCCOC(=O)CCN(C)CCCN(C)CCC(=O)OCCSSCCCCCCCCCCCCCC` [Composition 80-O18B], the saporin delivery efficiency result in the assay with MDA-MB-231 cancer cells is recorded as “high saporin delivery efficiency”.

As to saporin, the tumor size entry with 4T1-12B breast tumors (Day 16) is “more than 120 mm^3”; in the assay with 4T1-12B breast tumors (Day 22) it was “more than 250 mm^3”.

Regarding `CCCCCCCCCCSSCCOC(=O)CCN(C)CCCN(C)CCC(=O)OCCSSCCCCCCCCCC` [Composition 80-O14B], the saporin delivery efficiency entry in the assay on MDA-MB-231 cancer cells is recorded as “high saporin delivery efficiency”.

In the case of `CCCCCCCCCCCCSSCCOC(=O)CCN(CCCN(CCO)CCO)CCC(=O)OCCSSCCCCCCCCCCCC` [Composition 87-O16B], the saporin delivery efficiency result with MDA-MB-231 cancer cells is “high saporin delivery efficiency”.
